One assay has as its system NOD2. The experiment in a line: IRF3 induction in HEK cells with or without transfected NOD2. Type of assay: cell-based.
The target of the next assay is T1, RIG-I (Homo sapiens, UniProt O95786).
T1 sequence (O95786 1-925): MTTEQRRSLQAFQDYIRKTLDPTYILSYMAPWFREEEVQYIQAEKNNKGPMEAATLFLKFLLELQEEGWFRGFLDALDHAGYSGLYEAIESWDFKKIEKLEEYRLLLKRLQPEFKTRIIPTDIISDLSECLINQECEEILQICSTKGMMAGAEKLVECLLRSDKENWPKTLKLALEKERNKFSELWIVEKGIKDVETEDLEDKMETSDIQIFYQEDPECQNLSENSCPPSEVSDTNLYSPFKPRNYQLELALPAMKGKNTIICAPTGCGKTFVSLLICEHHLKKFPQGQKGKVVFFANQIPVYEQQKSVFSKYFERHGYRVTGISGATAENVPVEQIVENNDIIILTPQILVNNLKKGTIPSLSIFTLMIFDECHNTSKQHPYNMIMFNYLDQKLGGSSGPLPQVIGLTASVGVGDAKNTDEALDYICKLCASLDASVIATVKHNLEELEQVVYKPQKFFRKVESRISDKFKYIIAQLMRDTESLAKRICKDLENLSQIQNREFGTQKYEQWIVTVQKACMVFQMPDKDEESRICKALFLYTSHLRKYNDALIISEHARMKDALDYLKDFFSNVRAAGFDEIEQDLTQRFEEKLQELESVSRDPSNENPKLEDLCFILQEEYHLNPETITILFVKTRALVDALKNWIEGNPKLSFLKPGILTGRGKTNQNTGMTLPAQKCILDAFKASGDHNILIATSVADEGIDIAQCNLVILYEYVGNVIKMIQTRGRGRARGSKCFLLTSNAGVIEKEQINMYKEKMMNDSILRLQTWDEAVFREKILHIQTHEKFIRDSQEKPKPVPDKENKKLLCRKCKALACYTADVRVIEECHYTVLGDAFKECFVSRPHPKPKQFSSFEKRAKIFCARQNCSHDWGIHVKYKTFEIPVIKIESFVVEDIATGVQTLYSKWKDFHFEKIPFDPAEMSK
Briefly: RIG-I translocation on dsRNA, single-molecule PIFE assay. Format: biochemical. The procedure:
An in vitro single-molecule fluorescence assay termed PIFE (protein induced fluorescence enhancement) was employed to monitor such movement (Myong, S. et al., Science, 323, 1070, 2009).
For quantitation of RIG-I translocation, Single molecule PIFE yields were estimated. Single molecule PIFE yields are obtained from several hundred molecules simultaneously, allowing statistically reliable data collection.
The translocation as above was carried out using different concentrations of nucleotide compound.
A standard dsRNA (25 bp) was used as a main substrate for RIG-I translocation assay. […] The ratio between rapid (stimulated) translocation and slow translocation would be accounted for in the estimation of compound strength. In order to quantify the affinity of the compound to RIG-I or to RNA substrate, various concentrations of the compound (1-100 μM range) were used in the assay. This enabled the calculation of the association/dissociation constant for each compound, which was a useful measure to apply in cell-based evaluation of compound potency.
The same translocation assay was used on dsRNA, which contains […] moiety with and without the compound.

For another assay, the system named is PBMCs. Type of assay: cell-based.
A further assay concerns HBV-3TC-R4 LMMV. Type of assay: cell-based. The following applies: Hepatitis B virus.
For a further assay, the system named is HBV WT. The experiment in a line: HepG2.2.15 cell-based HBV assay, wild type. The following applies: Hepatitis B virus. On the procedure:
Selected compounds were evaluated in in vitro cell-based HepG2.2.15 HBV assay.
Antiviral analysis. For the antiviral analyses, confluent cultures of 2.2.1.5 cells were maintained on 96-well flat-bottomed tissue culture plates in RPMI1640 medium with 2% fetal bovine serum. Cultures (6 per each test concentration on two replicate plates) were treated with 9 consecutive daily doses of the test compounds. Medium was changed daily with fresh test compounds. HBV nucleic acid and protein levels were measured 24 hours after the last treatment. Extracellular (virion) HBV DNA levels were assessed by quantitative blot hybridization. Intracellular HBV DNA levels were measured by quantitative Southern blot hybridization.
The uptake of neutral red dye was used to determine the relative level of toxicity 24 hours following the last treatment. The absorbance of internalized dye at […] (A510) was used for the semi-quantitative analysis. Values are presented as a percentage of the average A510 values (±standard deviations) in 9 separate cultures of untreated cells maintained on the 96-well plates seeded at the same time with the identical pool of stock cells used for the antiviral analyses and maintained in an identical manner. A total of 3 cultures were treated with each concentration of the test compound.

Entries after “also recorded” stand apart in the source; their conditions may differ.

A word on the EC50: it is the concentration that produces a half-maximal response. One may read the EC90 as the concentration at which the effect reaches the 90% level. A lower EC90 goes with greater potency.

As to `CO[C@H]1C(OP(=O)(S)OC[C@H]2O[C@@H](n3cnc4c(N)ncnc43)CC2O)[C@@H](CO)O[C@H]1n1ccc(=O)[nH]c1=O` (stereo partly drawn) [Compound 5, 3-dApsU2′-OMe], the “induction of IRF3” value is given as “cause induction of IRF3” with NOD2 (HEK cells transfected with NOD2) and “failed to induce IRF3” with NOD2 (NOD2 deficient HEK cells). For the same molecule, on RIG-I (PIFE assay), the “RIG-I translocation on dsRNA (activity in words)” value is listed as “rapid translocation on dsRNA in a dose-dependent manner; also recorded: strong activators of RIG-I translocation”. Moreover, on RIG-I (concentration increased from 5 μM up to 170 μM), the “proportion of fast RIG-I translocation” value is given as “corresponding increase in the proportion of fast translocation”. Further, the “induction of IFN” value in the assay on PBMCs was “induction of IFN beta”.

`CO[C@H]1C(OP(=O)(OC[C@H]2O[C@@H](n3cnc4c(N)ncnc43)CC2O)SCOC(=O)OC(C)C)[C@@H](CO)O[C@H]1n1ccc(=O)[nH]c1=O` (stereo partly drawn) [Compound 6k]: in the assay on HBV-3TC-R4 LMMV, the EC50 turned out to be 3.1 µM and the EC90 is 9.3 µM. Besides, in the assay with HBV WT, it took 2.5 µM to reach a half-maximal effect (EC50) and it took 8.5 µM to reach the 90% level (EC90).

These data come from US20150329864A1, “DESIGN OF OLIGONUCLEOTIDE ANALOGS AS THERAPEUTIC AGENTS” (SPRING BANK PHARMACEUTICALS, INC., priority 2010, published 2015).
